Bridge positions count the residues as written; N and C are the ends. Square brackets hold non-standard residues; d marks the D form. Peptide text beside a SMILES is read from it. Dap = NC[C@H](N)C(=O)O
Tests used:
[1] = Stability in mouse lungs (BAL fluid analysed by HPLC after intratracheal instillation); format: in vivo, CD1 mice; conditions: both sexes, CD1, cell-free bronchoalveolar lavage fluid (BALF), inhaled or intranasal, 400 ug, 400 μg intratracheally, FIG. 14B
Method: (§1) FIGS. 14A-14D. Pharmacological properties of dnCSPs. (FIG. 14A) CSPs were treated with trypsin/chymotrypsin and their degradation monitored by HPLC. (FIG. 14B) CD1 mice (3/cohort, males & females) were intratracheally instilled 400 μg of native or dnCSPs. Mice were bronchial alveolar lavaged (BAL) at indicated times, and cell free BAL fluid (BALF) were analyzed by HPLC. […] (FIGS. 14C-14D) CD1 mice (5/cohorts, males & females) were intratracheally inoculated with MTD doses of native and dnCSPs (200 μg-20 mg/kg). […] Lung sections (FIGS. 14C-14D) and other organs were H&E stained. b=bronchioles; v=vessels.

ComD1 receptor = ComD1 receptor (Streptococcus pneumoniae serotype 2, UniProt A0A0H2ZM50); assay: cell-based; format: cell-based
Description: (§2) Biological evaluation of cyclic dnCSPs. The cyclic dnCSPs will be assessed for inhibition of competence induction using the β-gal, lux (FIG. 11) or luc (FIG. 15) reporter systems we have optimized for the analysis of a large number of signal variants in 96-well plates. All assays will be performed in triplicates and independently three times. Serial dilutions of dnCSPs will be conducted to determine the EC50 and IC50 values of promising dnCSPs through initial screening. Data from reporter assays will be analyzed using the GraphPad Prism software. The lead dnCSPs will be assessed for their therapeutic potential using multiple in vitro assays, including attenuation of ComX-induction (reporter systems), genetic transformation, allolysis (zymogram assays), and release of PLY (hemolysis & Western blots). Lastly, the pneumococcal competence system regulates biofilm formation, which is important for the pathogenesis of […]. The ability of the dnCSPs to inhibit biofilm formation will be evaluated after 24 hr of growth on 1% BSA coated coverslips placed in flat-bottom polystyrene tissue culture plates by staining with FilmTracer LIVE/DEAD Biofilm viability kit (Invitrogen, L10316), and visualized using a confocal microscope and Z-stacked to construct 3D-images.

[2] = Proteolytic stability in trypsin/chymotrypsin solution, monitored by RP-HPLC; format: in vitro ADME; conditions: counting active degradation product CSP1-E1A-des-K16K17-cyc(Dap6E10), read-out: effective half-life
Method: FIG. 4E. […] All peptides were treated with trypsin/chymotrypsin (0.05 μg mL-1 enzyme concentration). RP-HPLC was used to monitor the progress of degradation. All peptides have a half-life about 3 hours. After 3 to 4 hours, some degradation product of CSP1-cyc-E1A(Dap6E10) start to precipitate out, resulting in the plateau in the curve.
as §1
The proteolytic stability of CSP1-E1A-cyc(Dap6E10) in Trypsin and Chymotrypsin solution was tested and the half-life measured. […] To test that, CSP1-E1A-des-K16K17-cyc(Dap6E10) was manually synthesized and evaluated its activity.
Pharmacological evaluation of lead cyclic dnCSPs. Before moving the most promising dnCSPs into mouse models, their pharmacological properties will be evaluated. As these are peptide-based drugs, first assessed are their metabolic stability. These assays will include prolonged incubation in physiologically-relevant buffers with varying pH values, stability towards degradation by trypsin and chymotrypsin, and stability in mouse lungs, plasma and serum to simulate in vivo proteolytic environments. Degradation of dnCSPs will be quantified using HPLC. […] The MTD will be defined as the maximum dose that causes a 15% loss of initial weight. […] Systemic toxicity will be assessed by performing blood chemistry and complete blood count (CBC) with differential. Major organs (e.g., liver, kidney, heart, lung, etc.) and sternum (to test genotoxicity) will be collected for histopathological and toxicological analysis. […]

ComD2 receptor = ComD2 receptor (Streptococcus pneumoniae serotype 4, UniProt A0A0H2US84); assay: cell-based; format: cell-based
Description: as §2, with “The cyclic dnCSPs will be assessed for inhibition of competence induction using the β-gal, lux (FIG. 11) or luc (FIG. 15) reporter systems we have optimized for the analysis of a large number of signal variants in 96-well plates.” left out

Chain of ComD2 receptor (A0A0H2US84 entry or part of it): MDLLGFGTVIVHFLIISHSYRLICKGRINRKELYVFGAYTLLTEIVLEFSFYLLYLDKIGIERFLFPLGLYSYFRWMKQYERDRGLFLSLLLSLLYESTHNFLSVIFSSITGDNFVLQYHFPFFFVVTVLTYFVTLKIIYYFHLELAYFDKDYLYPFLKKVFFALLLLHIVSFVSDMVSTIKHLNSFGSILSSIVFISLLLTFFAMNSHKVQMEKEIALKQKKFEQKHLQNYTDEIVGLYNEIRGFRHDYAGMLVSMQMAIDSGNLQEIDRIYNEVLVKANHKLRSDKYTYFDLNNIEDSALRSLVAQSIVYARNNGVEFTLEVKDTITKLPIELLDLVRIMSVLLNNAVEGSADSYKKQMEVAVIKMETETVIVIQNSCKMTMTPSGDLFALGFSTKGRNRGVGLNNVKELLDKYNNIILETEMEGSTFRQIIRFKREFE
Chain of ComD1 receptor (A0A0H2ZM50 entry or part of it): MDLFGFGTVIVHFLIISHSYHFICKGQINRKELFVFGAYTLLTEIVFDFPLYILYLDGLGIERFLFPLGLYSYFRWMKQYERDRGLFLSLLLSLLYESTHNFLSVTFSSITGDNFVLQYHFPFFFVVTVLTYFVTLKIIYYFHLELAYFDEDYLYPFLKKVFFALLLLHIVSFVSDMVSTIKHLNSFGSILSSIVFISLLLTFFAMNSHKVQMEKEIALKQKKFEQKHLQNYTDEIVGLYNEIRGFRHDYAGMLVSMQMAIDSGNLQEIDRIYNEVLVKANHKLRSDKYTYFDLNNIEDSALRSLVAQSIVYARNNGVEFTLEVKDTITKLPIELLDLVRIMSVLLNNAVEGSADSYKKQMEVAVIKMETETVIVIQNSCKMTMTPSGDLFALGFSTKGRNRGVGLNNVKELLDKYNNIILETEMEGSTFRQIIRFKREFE

SMILES | EC50 (ComD1 receptor) | maximal induction of comX compared to CSP1 (ComD1 receptor; ComD1) | EC50 (ComD2 receptor) | further results
CC[C@H](C)[C@H](NC(=O)[C@H](Cc1ccccc1)NC(=O)[C@H](CC(=O)O)NC(=O)[C@H](CCCNC(=N)N)NC(=O)[C@H](Cc1ccccc1)NC(=O)[C@H](Cc1ccccc1)NC(=O)[C@H](CCCCN)NC(=O)[C@H](CO)NC(=O)[C@H](CC(C)C)NC(=O)[C@H](CCCNC(=N)N)NC(=O)[C@H](CCSC)NC(=O)[C@@H](N)CCC(=O)O)C(=O)N[C@@H](CC(C)C)C(=O)N[C@@H](CCC(N)=O)C(=O)N[C@@H](CCCNC(=N)N)C(=O)N[C@@H](CCCCN)C(=O)N[C@@H](CCCCN)C(=O)O [CSP1, reference compound] | – | – | – | half-life [1]: 1.5 h
CC[C@H](C)[C@H](NC(=O)[C@H](Cc1ccccc1)NC(=O)[C@@H]1CCC(=O)NC[C@H](NC(=O)[C@H](CO)NC(=O)[C@H](CC(C)C)NC(=O)[C@H](CCCNC(=N)N)NC(=O)[C@H](CCSC)NC(=O)[C@H](C)N)C(=O)N[C@@H](Cc2ccccc2)C(=O)N[C@@H](Cc2ccccc2)C(=O)N[C@@H](CCCNC(=N)N)C(=O)N1)C(=O)N[C@@H](CC(C)C)C(=O)N[C@@H](CCC(N)=O)C(=O)N[C@@H](CCCNC(=N)N)C(=O)N[C@@H](CCCCN)C(=O)N[C@@H](CCCCN)C(=O)O [CSP1-E1A-cyc(Dap6E10), A-M-R-L-S-(Dap-F-F-R-E)-F-I-L-Q-R-K-K] (H-AMRLS[Dap]FFREFILQRKK-OH; lactam 6-10; N-terminus and C-terminus assumed) | – | – | – | IC50 (ComD1 receptor): 75.8 nM; half-life [2]: > 4 h; IC50 (ComD2 receptor): 182 nM
CC[C@H](C)[C@H](NC(=O)[C@H](Cc1ccccc1)NC(=O)[C@@H]1CCC(=O)NC[C@H](NC(=O)[C@H](CO)NC(=O)[C@H](CC(C)C)NC(=O)[C@H](CCCNC(=N)N)NC(=O)[C@H](CCSC)NC(=O)[C@@H](N)CCC(=O)O)C(=O)N[C@@H](Cc2ccccc2)C(=O)N[C@@H](Cc2ccccc2)C(=O)N[C@@H](CCCNC(=N)N)C(=O)N1)C(=O)N[C@@H](CC(C)C)C(=O)N[C@@H](CCC(N)=O)C(=O)N[C@@H](CCCNC(=N)N)C(=O)N[C@@H](CCCCN)C(=O)N[C@@H](CCCCN)C(=O)O [CSP1-cyc(Dap6E10)] (H-EMRLS[Dap]FFREFILQRKK-OH; lactam 6-10; N-terminus and C-terminus assumed) | 14.6 nM | 100% | 13.1 nM | potency higher than CSP1-cyc(Orn6D10) (ComD1 receptor; ComD1): 10 fold; potency against ComD2 receptor higher than CSP2 (ComD2 receptor): about 4 fold
CC[C@H](C)[C@H](NC(=O)[C@H](Cc1ccccc1)NC(=O)[C@H](CC(=O)O)NC(=O)[C@@H]1CC(=O)NCCCC[C@H](NC(=O)[C@H](CO)NC(=O)[C@H](CC(C)C)NC(=O)[C@H](CCCNC(=N)N)NC(=O)[C@H](CCSC)NC(=O)[C@@H](N)CCC(=O)O)C(=O)N[C@@H](Cc2ccccc2)C(=O)N[C@@H](Cc2ccccc2)C(=O)N1)C(=O)N[C@@H](CC(C)C)C(=O)N[C@@H](CCC(N)=O)C(=O)N[C@@H](CCCNC(=N)N)C(=O)N[C@@H](CCCCN)C(=O)N[C@@H](CCCCN)C(=O)O [CSP1-cyc(K6D9)] (H-EMRLSKFFDDFILQRKK-OH; lactam 6-9; N-terminus and C-terminus assumed) | > 1000 nM | – | 528 nM | –
CC[C@H](C)[C@H](NC(=O)[C@H](Cc1ccccc1)NC(=O)[C@@H]1CC(=O)NCCCC[C@H](NC(=O)[C@H](CO)NC(=O)[C@H](CC(C)C)NC(=O)[C@H](CCCNC(=N)N)NC(=O)[C@H](CCSC)NC(=O)[C@@H](N)CCC(=O)O)C(=O)N[C@@H](Cc2ccccc2)C(=O)N[C@@H](Cc2ccccc2)C(=O)N[C@@H](CCCNC(=N)N)C(=O)N1)C(=O)N[C@@H](CC(C)C)C(=O)N[C@@H](CCC(N)=O)C(=O)N[C@@H](CCCNC(=N)N)C(=O)N[C@@H](CCCCN)C(=O)N[C@@H](CCCCN)C(=O)O [CSP1-cyc(K6D10)] | 258 nM | 44% | > 1000 nM | –
CC[C@H](C)[C@@H]1NC(=O)[C@H](Cc2ccccc2)NC(=O)[C@H](CC(=O)O)NC(=O)[C@H](CCCNC(=N)N)NC(=O)[C@H](Cc2ccccc2)NC(=O)[C@H](Cc2ccccc2)NC(=O)[C@@H](NC(=O)[C@H](CO)NC(=O)[C@H](CC(C)C)NC(=O)[C@H](CCCNC(=N)N)NC(=O)[C@H](CCSC)NC(=O)[C@@H](N)CCC(=O)O)CCCCNC(=O)C[C@@H](C(=O)N[C@@H](CCCNC(=N)N)C(=O)N[C@@H](CCCCN)C(=O)N[C@@H](CCCCN)C(=O)O)NC(=O)[C@H](CC(C)C)NC1=O [CSP1-cyc(K6D14)] (H-EMRLSKFFRDFILDRKK-OH; lactam 6-14; N-terminus and C-terminus assumed) | > 1000 nM | – | > 1000 nM | –
CC[C@H](C)[C@H](NC(=O)[C@H](Cc1ccccc1)NC(=O)[C@@H]1CCC(=O)NCCCC[C@H](NC(=O)[C@H](CO)NC(=O)[C@H](CC(C)C)NC(=O)[C@H](CCCNC(=N)N)NC(=O)[C@H](CCSC)NC(=O)[C@@H](N)CCC(=O)O)C(=O)N[C@@H](Cc2ccccc2)C(=O)N[C@@H](Cc2ccccc2)C(=O)N[C@@H](CCCNC(=N)N)C(=O)N1)C(=O)N[C@@H](CC(C)C)C(=O)N[C@@H](CCC(N)=O)C(=O)N[C@@H](CCCNC(=N)N)C(=O)N[C@@H](CCCCN)C(=O)N[C@@H](CCCCN)C(=O)O [CSP1-cyc(K6E10)] | 350 nM | – | > 1000 nM | –
CC[C@H](C)[C@H](NC(=O)[C@H](Cc1ccccc1)NC(=O)[C@@H]1CC(=O)NCCC[C@H](NC(=O)[C@H](CO)NC(=O)[C@H](CC(C)C)NC(=O)[C@H](CCCNC(=N)N)NC(=O)[C@H](CCSC)NC(=O)[C@@H](N)CCC(=O)O)C(=O)N[C@@H](Cc2ccccc2)C(=O)N[C@@H](Cc2ccccc2)C(=O)N[C@@H](CCCNC(=N)N)C(=O)N1)C(=O)N[C@@H](CC(C)C)C(=O)N[C@@H](CCC(N)=O)C(=O)N[C@@H](CCCNC(=N)N)C(=O)N[C@@H](CCCCN)C(=O)N[C@@H](CCCCN)C(=O)O [CSP1-cyc(Orn6D10)] | 193 nM | 100% | > 1000 nM | –
CC[C@H](C)[C@H](NC(=O)[C@H](CCCNC(=N)N)NC(=O)[C@H](CCSC)NC(=O)[C@@H](N)CCC(=O)O)C(=O)N[C@@H](CO)C(=O)N[C@@H](CCCNC(=N)N)C(=O)N[C@H](C(=O)N[C@H](C(=O)N[C@@H](CC(C)C)C(=O)N[C@H](CC(=O)O)C(=O)N[C@@H](Cc1ccccc1)C(=O)N[C@@H](CC(C)C)C(=O)N[C@@H](Cc1ccccc1)C(=O)N[C@@H](CC(C)C)C(=O)N[C@@H](CCCNC(=N)N)C(=O)N[C@@H](CCCCN)C(=O)N[C@@H](CCCCN)C(=O)O)[C@@H](C)CC)[C@@H](C)CC [CSP2-d10, E-M-R-I-S-R-I-I-L-d-F-L-F-L-R-K-K] (H-EMRISRIIL[dD]FLFLRKK-OH; N-terminus and C-terminus assumed) | – | – | – | half-life [1]: 2.5 h

Source: patent publication US12528838B2, “Cyclic dominant negative competence stimulating peptide analogs and methods of treating Streptococcus pneumoniae infections” (priority 2019, dated 2026)
